Results taken from patent US9409952B2, “Peptide-compound cyclization method” (Chugai Seiyaku Kabushiki Kaisha, priority 2011, dated 2016).
Read-outs that look alike come from different tables or passages of the source. Starred links: 1 amine or outer side, 2 acyl side, 3 side chain; linkers in the order of their positions; H or OH if unused. Positions of bridges follow the written chain, without caps; N, C: chain ends. Non-standard residues stand in square brackets, D forms with d. Residues, ends and D or L forms follow the SMILES beside them. *: point of attachment. Phe(4-(CH2)5CO) = O=C([C@H](Cc1ccc(CCCCCC(=O)[*:3])cc1)N[*:1])[*:2]; NEtPhe = CCN[C@@H](Cc1ccccc1)C(=O)O; NMeF = CN[C@@H](Cc1ccccc1)C(=O)O; NMeI = CC[C@H](C)[C@H](NC)C(=O)O; NMeL = CN[C@@H](CC(C)C)C(=O)O; Ala(CN) = N#CC[C@H](N)C(=O)O; Pip = O=C(O)[C@@H]1CCCCN1; NMeA = CN[C@@H](C)C(=O)O; Piperidide = C1CCN(*)CC1; Sar = CNCC(=O)O

Assay: Metabolic stability in human hepatic microsome
Assay type: in vitro ADME
Details: microsomes
[1] = pH 7.4, human hepatic microsome, NADPH(+), read-out: CL NADPH(+)

CC[C@H](C)[C@@H]1NC(=O)[C@H](C)NC(=O)[C@H](CC(C)C)N(C)C(=O)[C@H](CC(C)C)NC(=O)[C@H](Cc2ccccc2)NC(=O)[C@H](C(C)C)NC(=O)[C@@H]2CCCN2C(=O)[C@H](CC(C)C)NC(=O)[C@H](Cc2ccccc2)N(C)C(=O)[C@H]([C@@H](C)O)NC(=O)CNC(=O)[C@H](C)NC(=O)C[C@@H](C(=O)N2CCCCC2)NC1=O [DP-20] (AGT[NMeF]LPVFL[NMeL]AID-Piperidide; lactam N-13)
microsomal CLint at 1 uM (human, pH 7.4, CL NADPH(+)): 97 µL/min/mg

CC[C@H](C)[C@H]1C(=O)NCC(=O)N(C)[C@@H](CC(C)C)C(=O)N[C@@H]([C@@H](C)O)C(=O)N2CCCC[C@H]2C(=O)N[C@@H](Cc2ccccc2)C(=O)N[C@H](C(=O)N2CCCCC2)CC(=O)N(C)[C@@H](C)C(=O)N[C@@H](Cc2ccccc2)C(=O)N(C)[C@@H](CC(C)C)C(=O)N[C@@H](CC(C)C)C(=O)N1C [DP-559] ([NMeA]F[NMeL]L[NMeI]G[NMeL]T[Pip]FD-Piperidide; lactam N-11)
microsomal CLint at 1 uM [1]: 145 µL/min/mg

C=C1CCC(=O)N[C@@H](CC(C)C)C(=O)N(C)[C@@H](CC(C)C)C(=O)N(C)[C@@H](Cc2ccccc2)C(=O)N[C@@H](C)C(=O)N(C)[C@@H](Cc2ccccc2)C(=O)N(C)[C@@H]([C@@H](C)CC)C(=O)N[C@@H]([C@@H](C)O)C(=O)N(C)CC(=O)N(C)[C@@H](CC(C)C)C(=O)N[C@H](C(=O)N2CCCCC2)Cc2ccc1cc2 [DP-854]
microsomal CLint at 1 uM [1]: 252 µL/min/mg

CC[C@H](C)[C@H]1C(=O)N(C)[C@@H](CC(C)C)C(=O)N[C@H](C(=O)N2CCCCC2)CC(=O)N(C)CC(=O)N[C@@H](CC(C)C)C(=O)N[C@@H]([C@@H](C)O)C(=O)N(C)CC(=O)N(C)[C@@H](Cc2ccccc2)C(=O)N[C@@H](C)C(=O)N(CC)[C@@H](Cc2ccccc2)C(=O)N[C@@H](CC(C)C)C(=O)N1C [DP-638] ([Sar]LT[Sar][NMeF]A[NEtPhe]L[NMeI][NMeL]D-Piperidide; lactam N-11)
microsomal CLint at 1 uM [1]: 47 µL/min/mg

CC[C@H](C)[C@H]1C(=O)NCC(=O)N(C)[C@@H](CC(C)C)C(=O)N[C@@H]([C@@H](C)O)C(=O)N2CCC[C@H]2C(=O)N[C@@H](Cc2ccccc2)C(=O)N[C@H](C(=O)N2CCCCC2)CC(=O)N(C)[C@@H](C)C(=O)N[C@@H](Cc2ccccc2)C(=O)N2CCCC[C@H]2C(=O)N[C@@H](CC(C)C)C(=O)N1C [DP-553] ([NMeA]F[Pip]L[NMeI]G[NMeL]TPFD-Piperidide; lactam N-11)
microsomal CLint at 1 uM [1]: 106 µL/min/mg

CC(C)C[C@@H]1NC(=O)[C@H](CC(C)C)N(C)C(=O)[C@H](C)N(C)C(=O)[C@@H](C(C)C)NC(=O)C[C@@H](C(=O)N2CCCCC2)NC(=O)[C@H]([C@@H](C)O)NC(=O)[C@H](Cc2ccccc2)N(C)C(=O)[C@H](C)N(C)C(=O)[C@H](CC(C)C)N(C)C(=O)[C@H](CC#N)NC(=O)[C@H](Cc2ccccc2)N(C)C1=O [DP-630] ([dV][NMeA][NMeL]L[NMeF][Ala(CN)][NMeL][NMeA][NMeF]TD-Piperidide; lactam N-11)
microsomal CLint at 1 uM [1]: 34 µL/min/mg

CC[C@H](C)[C@@H]1NC(=O)[C@H](C)NC(=O)C[C@@H](C(=O)N2CCCCC2)NC(=O)[C@H](C(C)C)NC(=O)[C@H](Cc2ccccc2)N(C)C(=O)[C@H](CC(C)C)NC(=O)[C@H]([C@@H](C)O)NC(=O)[C@H](Cc2ccccc2)NC(=O)[C@H](C)NC(=O)CN(C)C(=O)[C@H](CC(C)C)NC1=O [DP-28] (AIL[Sar]AFTL[NMeF]VD-Piperidide; lactam N-11)
microsomal CLint at 1 uM (human, pH 7.4, CL NADPH(+)): 113 µL/min/mg

CC[C@H](C)[C@H]1C(=O)N[C@@H](Cc2ccccc2)C(=O)N(C)[C@@H](Cc2ccccc2)C(=O)N[C@@H]([C@@H](C)O)C(=O)N2CCC[C@H]2C(=O)N[C@@H](CC(C)C)C(=O)N[C@H](C(=O)N2CCCCC2)Cc2ccc(cc2)CCCCCC(=O)N[C@@H](C(C)C)C(=O)N(C)CC(=O)N[C@@H](CC(C)C)C(=O)N(C)[C@@H](CC(C)C)C(=O)N[C@@H](C)C(=O)N1C [DP-895] (V[Sar]L[NMeL]A[NMeI]F[NMeF]TPL[Phe(4-(CH2)5CO)]-Piperidide; lactam N-12)
microsomal CLint at 1 uM [1]: 54 µL/min/mg
